The subject of this test is Hair follicles (HF). As to the kind of experiment: Hair follicle (HF) explant growth assay. It is filed as cell-based, human. As to conditions: HF elongation after 7-8 days; 20 ng/ml of each growth factor, hypoxanthine 2 μM; mean of 6-8 independent experiments. The procedure: Hair follicles (HF) were extracted from the occipital area of 6-8 individuals with hair loss. The HFs were processed to equivalent lengths and cultured in William's E medium supplemented with 100 units/ml penicillin G, 100 μg/ml streptomycin, 0.25 μg/ml amphotericin B, […], 1 ng/ml hydrocortisone; basic medium or control medium or basic medium supplemented with 20 ng/ml of each of IGF-1, FGF-2, PDGF, Wnt-3A (Wnt), Noggin (Nog), Ephrin A3 (Eph), SHH and BMP-6 as well as hypoxanthine (Hyx) at 2 μM final concentration. The “GF10 cocktail” or “GF10” includes all nine growth factors and hypoxanthine while the “GF7 cocktail” or “GF7” contains six growth factors (all growth factors of GF10 except for FGF-10, Eph and SHH) and hypoxanthine. Growth promotion was measured as elongation of the HF at the end of 7-8 days. All growth factors and hypoxanthine promoted growth individually and in combination (FIG. 1 and Table 1).
In the case of FGF2: fibroblast growth factor-2, the “Increase in growth (% control) Mean” value came to 146.474 % control. Next, “IGF1: insulin-like growth factors-1, cellular growth factor”: 39.31 % control; PDGF: platelet-derived growth factor-AA: 69.56 % control. Next, `O=c1[nH]cnc2nc[nH]c12` [Hypx, hypoxanthine]: 104.1618 % control.

Values taken from patent US20110306546A1, “COMPOSITIONS FOR INCREASING HAIR GROWTH AND DECREASING HAIR LOSS” (ALVI ARMANI GENOMICS INC., priority 2010, published 2011).
